Data: BigSolDB 2.1

Nc1ccc(Oc2ccc(N)cc2)cc1
solubility (mole fraction)
Settings	293.15 K	298.15 K	303.15 K	308.15 K	313.15 K	318.15 K	323.15 K	328.15 K	333.15 K
in DMAc	0.14	0.144	0.148	0.152	0.157	0.164	0.166	0.177	0.184
in DMF	0.113	0.117	0.12	0.126	0.132	0.139	0.146	0.152	0.161
in DMSO	0.149	0.153	0.159	0.165	0.171	0.181	0.185	0.192	0.201
